Assay results published in publication PMC9719519, “Non-classical ferroptosis inhibition by a small molecule targeting PHB2” (Nature Communications, 2022).

Legend:
Experiment in all cases: biochemical
Design in all cases: Eurofins recombinant human kinase profiling, remaining kinase activity as % of control, 10 uM ATP
Details in all cases: ATP 10 uM; read-out: %Ctrl@10 μM
ErbB4(h) = ErbB4(h) (Homo sapiens, UniProt Q15303)
Excerpt: (§1) To rapidly determine the biological target of YL-939, we first tested the activity of YL-939 against a panel of 401 recombinant human protein kinases by using the kinase profiling assay provided by Eurofins, since kinases are often the key components in various signal pathways[35],[36]. […] We then carried out affinity-based proteome profiling assay (ABPP) coupled with bioimaging to identify the biological target of YL-939 (Fig. 4A). To this end, we designed and synthesized a photoaffinity probe, YL-939-1 (Fig. 4A and Supplementary Fig. 5), which is YL-939 attached by a photo-crosslinker (L3) that contains a photo-reactive group diazirine and a clickable alkyne handle.

GRK1(h) = GRK1(h) (Homo sapiens, UniProt Q15835)
Excerpt: as §1

CaMKIV(h) = biological target: T1, CaMKIV(h) (Homo sapiens, UniProt Q16566)
T1 construct: gene CAMK4
Excerpt: as §1

PKCγ(h) = biological target: T2, PKCγ(h) (Homo sapiens, UniProt P05129)
T2 construct: gene PRKCG
Excerpt: as §1

ROCK-II(h) = biological target: T3, ROCK-II(h) (Homo sapiens, UniProt O75116)
T3 construct: gene ROCK2
T3 sequence (O75116 whole entry): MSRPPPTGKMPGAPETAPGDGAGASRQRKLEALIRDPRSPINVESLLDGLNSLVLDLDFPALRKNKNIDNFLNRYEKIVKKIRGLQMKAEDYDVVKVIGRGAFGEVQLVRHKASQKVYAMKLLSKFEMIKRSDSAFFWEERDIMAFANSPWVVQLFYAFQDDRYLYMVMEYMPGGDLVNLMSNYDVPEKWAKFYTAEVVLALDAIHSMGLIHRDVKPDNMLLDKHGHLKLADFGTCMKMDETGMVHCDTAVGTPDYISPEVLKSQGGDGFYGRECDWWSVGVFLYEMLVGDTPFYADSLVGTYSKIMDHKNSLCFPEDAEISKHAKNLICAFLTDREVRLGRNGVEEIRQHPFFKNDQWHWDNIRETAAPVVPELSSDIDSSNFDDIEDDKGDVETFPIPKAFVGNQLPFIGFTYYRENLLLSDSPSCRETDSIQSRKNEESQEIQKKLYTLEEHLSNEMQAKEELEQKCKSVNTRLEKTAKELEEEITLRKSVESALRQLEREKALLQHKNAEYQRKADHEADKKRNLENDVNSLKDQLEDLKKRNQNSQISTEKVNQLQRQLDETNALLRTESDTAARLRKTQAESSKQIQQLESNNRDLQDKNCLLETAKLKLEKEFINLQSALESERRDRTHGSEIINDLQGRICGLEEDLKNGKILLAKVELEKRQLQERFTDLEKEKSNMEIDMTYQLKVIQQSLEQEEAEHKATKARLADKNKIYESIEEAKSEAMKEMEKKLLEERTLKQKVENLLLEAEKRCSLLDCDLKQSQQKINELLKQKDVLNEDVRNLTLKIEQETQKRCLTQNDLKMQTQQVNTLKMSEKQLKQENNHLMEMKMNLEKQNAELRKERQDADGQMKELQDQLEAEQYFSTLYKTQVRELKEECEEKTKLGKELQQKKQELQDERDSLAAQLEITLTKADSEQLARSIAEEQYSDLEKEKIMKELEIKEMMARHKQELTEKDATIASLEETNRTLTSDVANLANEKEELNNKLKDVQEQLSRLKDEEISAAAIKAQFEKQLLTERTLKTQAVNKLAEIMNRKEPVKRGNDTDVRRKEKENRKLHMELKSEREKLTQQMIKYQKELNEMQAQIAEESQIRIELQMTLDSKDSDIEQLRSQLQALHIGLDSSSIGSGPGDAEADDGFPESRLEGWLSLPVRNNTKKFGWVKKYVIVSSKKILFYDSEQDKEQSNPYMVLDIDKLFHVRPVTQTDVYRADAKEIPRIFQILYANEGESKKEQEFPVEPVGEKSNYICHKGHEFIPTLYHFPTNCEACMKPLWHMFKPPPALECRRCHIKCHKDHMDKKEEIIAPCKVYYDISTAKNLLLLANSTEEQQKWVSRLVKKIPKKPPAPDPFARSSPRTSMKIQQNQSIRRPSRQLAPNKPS
Excerpt: as §1

TSSK3(h) = TSSK3(h) (Homo sapiens, UniProt Q96PN8)
Sequence of TSSK3(h) (Q96PN8 whole entry): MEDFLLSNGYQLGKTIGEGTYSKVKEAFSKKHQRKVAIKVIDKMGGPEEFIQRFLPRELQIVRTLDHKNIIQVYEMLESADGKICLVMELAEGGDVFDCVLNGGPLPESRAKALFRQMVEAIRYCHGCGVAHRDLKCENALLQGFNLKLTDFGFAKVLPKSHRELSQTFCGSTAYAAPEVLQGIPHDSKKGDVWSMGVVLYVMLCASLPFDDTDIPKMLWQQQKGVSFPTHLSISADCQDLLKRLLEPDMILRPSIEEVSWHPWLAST
Excerpt: as §1

AMPKα2(h) = biological target: T4, AMPKα2(h) (Homo sapiens, UniProt P54646)
T4 construct: gene PRKAA2
Excerpt: as §1

[1] = biological target: T5, PI3 Kinase (p110(E545K)/p85)(h) (Homo sapiens, UniProt P42336, E545K)
T5 construct: gene PIK3CA
Excerpt: as §1

PAK4(h) = PAK4(h) (Homo sapiens, UniProt O96013)
Excerpt: as §1

MARK3(h) = MARK3(h) (Homo sapiens, UniProt P27448)
Excerpt: as §1

Txk(h) = Txk(h) (Homo sapiens, UniProt P42681)
Excerpt: as §1

CHK2(h) = biological target: T6, CHK2(h) (Homo sapiens, UniProt O96017)
T6 construct: gene CHEK2
Excerpt: as §1

MSSK1(h) = biological target: T7, MSSK1(h) (Homo sapiens, UniProt Q9UPE1)
T7 construct: gene SRPK3
Excerpt: as §1

TAO3(h) = biological target: T8, TAO3(h) (Homo sapiens, UniProt Q9H2K8)
T8 construct: gene TAOK3
Excerpt: as §1

PKCβII(h) = biological target: T9, PKCβII(h) (Homo sapiens, UniProt P05771)
T9 construct: gene PRKCB; isoform beta II
Excerpt: as §1

MSK1(h) = biological target: T10, MSK1(h) (Homo sapiens, UniProt O75582)
T10 construct: gene RPS6KA5
T10 sequence (O75582 whole entry): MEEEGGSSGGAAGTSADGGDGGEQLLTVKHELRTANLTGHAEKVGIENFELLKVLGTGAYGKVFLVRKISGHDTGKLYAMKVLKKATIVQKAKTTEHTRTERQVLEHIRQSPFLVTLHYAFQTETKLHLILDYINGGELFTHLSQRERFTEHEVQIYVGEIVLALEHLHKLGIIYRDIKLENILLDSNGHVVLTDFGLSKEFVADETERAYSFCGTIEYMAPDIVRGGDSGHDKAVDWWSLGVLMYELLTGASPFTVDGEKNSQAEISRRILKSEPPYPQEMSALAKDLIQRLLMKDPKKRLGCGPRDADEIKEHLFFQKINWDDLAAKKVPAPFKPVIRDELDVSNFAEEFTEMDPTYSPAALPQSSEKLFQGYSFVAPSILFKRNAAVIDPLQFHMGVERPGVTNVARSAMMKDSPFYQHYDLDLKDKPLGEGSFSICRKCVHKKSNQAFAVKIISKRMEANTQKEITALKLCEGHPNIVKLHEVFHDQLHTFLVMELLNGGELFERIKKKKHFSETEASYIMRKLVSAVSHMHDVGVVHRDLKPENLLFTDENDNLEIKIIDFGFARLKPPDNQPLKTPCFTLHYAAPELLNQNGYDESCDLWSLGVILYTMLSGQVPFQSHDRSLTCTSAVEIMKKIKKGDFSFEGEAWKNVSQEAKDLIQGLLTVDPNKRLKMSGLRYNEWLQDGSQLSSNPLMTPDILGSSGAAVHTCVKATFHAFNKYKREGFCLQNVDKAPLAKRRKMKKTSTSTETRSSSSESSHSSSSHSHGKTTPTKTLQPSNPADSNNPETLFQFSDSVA
Excerpt: as §1

FAK(h) = biological target: T11, FAK(h) (Homo sapiens, UniProt Q05397)
T11 construct: gene PTK2
Excerpt: as §1

Tie2 (h) = biological target: T12, Tie2 (h) (Homo sapiens, UniProt Q02763)
T12 construct: gene TEK
T12 sequence (Q02763 whole entry): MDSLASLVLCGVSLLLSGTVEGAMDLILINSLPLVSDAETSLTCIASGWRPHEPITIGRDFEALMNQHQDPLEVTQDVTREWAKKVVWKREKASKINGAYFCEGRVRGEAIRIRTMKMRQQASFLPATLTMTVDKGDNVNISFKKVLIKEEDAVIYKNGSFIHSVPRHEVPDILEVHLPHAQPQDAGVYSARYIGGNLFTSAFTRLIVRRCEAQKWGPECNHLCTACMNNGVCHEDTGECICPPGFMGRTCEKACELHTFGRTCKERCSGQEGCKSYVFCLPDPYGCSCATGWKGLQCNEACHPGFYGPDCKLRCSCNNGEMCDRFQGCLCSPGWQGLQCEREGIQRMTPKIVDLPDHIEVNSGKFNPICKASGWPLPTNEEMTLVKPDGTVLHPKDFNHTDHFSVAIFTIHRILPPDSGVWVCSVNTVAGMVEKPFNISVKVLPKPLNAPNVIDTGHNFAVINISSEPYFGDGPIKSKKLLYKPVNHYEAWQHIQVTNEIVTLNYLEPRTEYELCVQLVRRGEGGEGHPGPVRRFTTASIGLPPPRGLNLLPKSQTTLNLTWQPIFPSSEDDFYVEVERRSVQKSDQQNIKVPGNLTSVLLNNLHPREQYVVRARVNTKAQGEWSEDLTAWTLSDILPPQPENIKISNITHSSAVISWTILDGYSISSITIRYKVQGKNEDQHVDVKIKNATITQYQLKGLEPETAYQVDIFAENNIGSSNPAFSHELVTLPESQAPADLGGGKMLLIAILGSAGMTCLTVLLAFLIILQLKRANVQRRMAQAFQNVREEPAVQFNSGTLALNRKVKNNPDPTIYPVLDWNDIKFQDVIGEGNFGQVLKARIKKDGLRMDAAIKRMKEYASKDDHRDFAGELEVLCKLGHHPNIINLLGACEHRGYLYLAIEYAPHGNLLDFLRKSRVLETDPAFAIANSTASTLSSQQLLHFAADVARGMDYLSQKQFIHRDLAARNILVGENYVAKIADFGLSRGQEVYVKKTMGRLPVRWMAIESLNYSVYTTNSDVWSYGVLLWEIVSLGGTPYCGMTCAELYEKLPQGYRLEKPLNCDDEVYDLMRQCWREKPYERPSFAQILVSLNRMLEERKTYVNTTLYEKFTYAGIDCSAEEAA
Excerpt: as §1

PKCζ(h) = biological target: T13, PKCζ(h) (Homo sapiens, UniProt Q05513)
T13 construct: gene PRKCZ
Excerpt: as §1

CaMKIß(h) = biological target: T14, CaMKIß(h) (Homo sapiens, UniProt Q6P2M8)
T14 construct: gene PNCK
Excerpt: as §1

CSK(h) = CSK(h) (Homo sapiens, UniProt P41240)
Excerpt: as §1

Abl (M351T)(h) = biological target: T15, Abl (M351T)(h) (Homo sapiens, UniProt P00519, M351T)
T15 construct: gene ABL1
Excerpt: as §1

Sequence of ErbB4(h) (Q15303 whole entry): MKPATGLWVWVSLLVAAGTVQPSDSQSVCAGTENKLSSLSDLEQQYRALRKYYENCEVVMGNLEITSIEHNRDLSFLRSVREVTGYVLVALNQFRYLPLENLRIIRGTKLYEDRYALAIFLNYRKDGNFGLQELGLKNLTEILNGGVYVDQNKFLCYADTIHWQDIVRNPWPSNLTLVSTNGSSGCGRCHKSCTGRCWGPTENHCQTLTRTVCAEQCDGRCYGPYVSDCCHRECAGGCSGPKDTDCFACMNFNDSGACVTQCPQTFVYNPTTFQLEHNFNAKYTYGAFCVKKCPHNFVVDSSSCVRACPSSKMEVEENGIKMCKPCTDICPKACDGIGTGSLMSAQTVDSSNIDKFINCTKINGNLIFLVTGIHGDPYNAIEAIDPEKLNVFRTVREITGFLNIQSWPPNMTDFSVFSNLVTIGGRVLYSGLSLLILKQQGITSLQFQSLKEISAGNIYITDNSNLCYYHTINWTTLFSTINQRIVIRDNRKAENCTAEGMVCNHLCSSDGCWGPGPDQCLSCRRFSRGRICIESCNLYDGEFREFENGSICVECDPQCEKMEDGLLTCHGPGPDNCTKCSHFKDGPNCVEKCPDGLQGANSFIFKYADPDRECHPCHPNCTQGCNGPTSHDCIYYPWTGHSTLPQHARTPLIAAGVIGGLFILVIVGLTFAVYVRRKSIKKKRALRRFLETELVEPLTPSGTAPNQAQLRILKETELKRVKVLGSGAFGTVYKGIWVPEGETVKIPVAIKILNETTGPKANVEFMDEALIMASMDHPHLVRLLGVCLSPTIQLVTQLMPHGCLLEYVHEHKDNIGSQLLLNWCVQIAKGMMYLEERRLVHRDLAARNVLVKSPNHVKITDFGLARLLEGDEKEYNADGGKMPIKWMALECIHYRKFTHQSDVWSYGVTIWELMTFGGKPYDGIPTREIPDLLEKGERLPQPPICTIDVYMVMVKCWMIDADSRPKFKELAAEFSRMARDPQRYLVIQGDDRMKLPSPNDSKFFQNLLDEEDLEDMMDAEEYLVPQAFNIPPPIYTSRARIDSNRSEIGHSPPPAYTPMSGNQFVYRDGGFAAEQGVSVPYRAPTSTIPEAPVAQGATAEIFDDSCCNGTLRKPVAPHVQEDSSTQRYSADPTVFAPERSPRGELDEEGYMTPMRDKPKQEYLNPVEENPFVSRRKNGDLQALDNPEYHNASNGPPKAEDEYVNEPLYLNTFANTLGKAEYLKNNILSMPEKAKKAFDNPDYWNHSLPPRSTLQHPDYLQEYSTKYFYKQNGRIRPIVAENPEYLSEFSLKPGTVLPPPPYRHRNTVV

C1=C(c2nc(-c3cnn(C4CCNCC4)c3)cn3cc(-c4ccccc4)nc23)CCOC1 [YL-939]
remaining activity at 10 µM (ErbB4(h)): 99% | remaining activity at 10 µM (GRK1(h)): 109% | remaining activity at 10 µM (CaMKIV(h)): 77% | remaining activity at 10 µM (PKCγ(h)): 96% | remaining activity at 10 µM (ROCK-II(h)): 89% | remaining activity at 10 µM (TSSK3(h)): 87% | remaining activity at 10 µM (AMPKα2(h)): 100% | remaining activity at 10 µM [1]: 95% | remaining activity at 10 µM (PAK4(h)): 97% | remaining activity at 10 µM (MARK3(h)): 80% | remaining activity at 10 µM (Txk(h)): 73% | remaining activity at 10 µM (CHK2(h)): 100% | remaining activity at 10 µM (MSSK1(h)): 87% | remaining activity at 10 µM (TAO3(h)): 102% | remaining activity at 10 µM (PKCβII(h)): 95% | remaining activity at 10 µM (MSK1(h)): 79% | remaining activity at 10 µM (FAK(h)): 112% | remaining activity at 10 µM (Tie2 (h)): 81% | remaining activity at 10 µM (PKCζ(h)): 94% | remaining activity at 10 µM (CaMKIß(h)): 88% | remaining activity at 10 µM (CSK(h)): 105% | remaining activity at 10 µM (Abl (M351T)(h)): 108%
